{
  "source": "patent US20040220205A1",
  "about": "(priority 2001, published 2004)",
  "key": {"rats": {"tested_on": "rats", "assay": "Behavioural experiment - injection into duodenum (with oral control)", "type": "in vivo, rat", "details": "for duration of dopaminergic behavior: dur (total duration of action) / duration of dopaminergic behavior: intense stereotypy / duration of dopaminergic behavior: less intense stereotypy: rat, bolus injection into duodenum; for duration of dopaminergic behavior: intense stereotypy / duration of dopaminergic behavior: less intense stereotypy: period after injection", "from_the_text": "These rats had been operated 1-14 days before the experiment. A plastic tubing was introduced entering through the duodenum wall at about the mid section and bent in such a way that it had its duct directed downwards (i.e. aiming downstream towards the jejunum and being about 2 cm long). An experienced scientist observed the animals for the entire period of pharmacological activity, scoring the behavior and emphasizing the following details:\nyawning, sniffing, chewing, licking, rearing, grooming, penile grooming, locomotor activity and stereotypy. The total duration of action where one or several of these behaviors were present was scored."}, "rat": {"tested_on": "rat", "assay": "Behavioural experiment - entero-coated pill", "type": "in vivo", "experimental": "One entero-coated tablet prepared as described in Example 1 and containing about 5 mg of NPA hydrochloride was placed under anesthesia (isoflurane) in the throat of a rat and pushed down the throat with a blunt instrument. Within five minutes, the rat was awake and exploring the cage. After about 3 to 4 hours, the rat began to show dopaminergic stimulatory signs like sniffing, chewing, penile licking, grooming and stereotypy with rearing, locomotor activity, intense sniffing and also licking. This stereotypy lasted for more than 24 hours.\n(§1) Pharmacological Experiment 2 was repeated but using an enterocoated tablet prepared as described in Example 3 containing about 1 mg of mono-pivaloyl-N-propyl-noraporphine (MPNPA) base instead of NPA hydrochloride."}, "[1]": {"tested_on": "dopamine release (striatum)", "assay": "Microdialysis experiment (striatum) with one entero-coated tablet", "type": "in vivo", "details": "rat striatum microdialysis", "experimental": "One entero-coated tablet prepared as described in Example 1 and containing about 5 mg of NPA hydrochloride was administered to a rat in the way described in Pharmacological Experiment 2 and a standard microdialysis was carried out.\nPharmacological Experiment 2 was repeated but using an entero-coated tablet containing about 5 mg of mono-pivaloyl-apomorphine base instead of NPA hydrochloride.\nas §1"}, "[2]": {"details": "earlier reports on symmetric di-esters of aporphines; cited from earlier work"}, "[3]": {"details": "control experiment, administered orally to the same rat, 4 mg/kg"}, "[4]": {"details": "one entero-coated tablet containing about 5 mg, pushed down the throat"}, "[5]": {"details": "one entero-coated tablet containing about 5 mg NPA hydrochloride"}, "[6]": {"details": "one entero-coated tablet containing about 5 mg mono-pivaloyl-apomorphine base"}},
  "note": "Values joined by “and” are separate entries in the source; they are usually repeats but may differ in a detail not shown here. Equal values may be shown once. Where a name gives a salt, the structure may show the parent alone.",
  "data": [
    {"molecule": "CN1CCc2cccc3c2[C@H]1Cc1ccc(O)c(O)c1-3", "note": "[Apomorphine Hydrochloride, apomorphine hydrochloride]", "values": [
      {"measurement": "dopaminergic stimulation observed", "setting": "rats; [3]", "value": "Very weak dopaminergic stimulation"},
      {"measurement": "time period in which dopaminergic effects were observed", "setting": "rats; [3]", "value": "10 to 20", "unit": "min"},
      {"measurement": "duration of dopaminergic behavior: dur (total duration of action)", "setting": "rats; 4.0 mg/kg", "value": 90, "unit": "min"},
      {"measurement": "duration of dopaminergic behavior: intense stereotypy", "setting": "rats; 4.0 mg/kg", "value": "intense stereotypy (5-75); less intense min"},
      {"measurement": "duration of dopaminergic behavior: less intense stereotypy", "setting": "rats; 4.0 mg/kg", "value": "75 to 85", "unit": "min"},
      {"measurement": "duration of dopaminergic behavior: dur (total duration of action)", "setting": "rats; 5.0 mg/kg, hydrochloride", "value": "95 min and 60 min"},
      {"measurement": "duration of dopaminergic behavior: less intense stereotypy", "setting": "rats; 5.0 mg/kg, hydrochloride, 5 mg/kg", "value": "40 to 90 min and 45 to 55 min"}
    ]},
    {"molecule": "CCCN1CCc2cccc3c2C1Cc1ccc(O)c(OC(=O)C(C)(C)C)c1-3", "note": "(stereo not drawn) [MPNPA, mono-pivaloyl-N-propyl-noraporphine]", "values": [
      {"measurement": "period of intense stereotypy", "setting": "rat; one entero-coated tablet containing about 1 mg MPNPA base, observed during the microdialysis experiment", "value": "between four hours and eight hours"},
      {"measurement": "period of continuous decrease of dopamine release", "setting": "[1]; one entero-coated tablet containing about 1 mg MPNPA base", "value": "between one hour and four hours"},
      {"measurement": "dopamine release", "setting": "[1]; one entero-coated tablet containing about 1 mg MPNPA base, at 18 hours after application of the pill", "value": "80 % of controls"},
      {"measurement": "dopamine release, maximal decrease", "setting": "[1]; one entero-coated tablet containing about 1 mg MPNPA base, at four hours", "value": "30 % of controls"}
    ]},
    {"molecule": "CCCN1CCc2cccc3c2[C@H]1Cc1ccc(O)c(O)c1-3", "note": "[NPA hydrochloride, 6aR-(-)-N-propyl-norapomorphine]", "values": [
      {"measurement": "duration of stereotypy", "setting": "rat; [4]", "value": "more than 24 hours"},
      {"measurement": "time until dopaminergic stimulatory signs began", "setting": "rat; [4]", "value": "3 to 4", "unit": "h"},
      {"measurement": "dopamine release, maximal decrease", "setting": "[1]; [5]", "value": "about 20% of control values"},
      {"measurement": "time of maximal decrease in dopamine release", "setting": "[1]; [5]", "value": "after about four hours"},
      {"measurement": "duration of maximal decrease in dopamine release", "setting": "[1]; one entero-coated tablet containing about 5 mg NPA hydrochloride, until the experiment was stopped", "value": "lasting for several hours"}
    ]},
    {"molecule": "CCCN1CCc2cccc3c2[C@H]1Cc1ccc(O)c(O)c1-3", "note": "[NPA, 6aR-(-)-N-propyl-norapomorphine]", "values": [
      {"measurement": "duration of dopaminergic behavior: dur (total duration of action)", "setting": "rats; 5.0 mg/kg", "value": "> 540", "unit": "min"}
    ]},
    {"molecule": "CN1CCc2cccc3c2C1Cc1ccc(OC(=O)C(C)(C)C)c(OC(=O)C(C)(C)C)c1-3", "note": "(stereo not drawn) [di-pivaloyl ester, di-pivaloyl esters of apomorphine]", "values": [
      {"measurement": "activity compared with parent compound apomorphine", "setting": "[2]", "value": "much less active"}
    ]},
    {"molecule": "monopivaloyl-apomorphine [Mono-Piv-Apo]", "values": [
      {"measurement": "duration of dopaminergic behavior: dur (total duration of action)", "setting": "rats; 4.6 mg/kg", "value": 120, "unit": "min"},
      {"measurement": "duration of dopaminergic behavior: intense stereotypy", "setting": "rats; 4.6 mg/kg", "value": "intense stereotypy (5-105); less intense min"},
      {"measurement": "duration of dopaminergic behavior: less intense stereotypy", "setting": "rats; 4.6 mg/kg", "value": "105 to 115", "unit": "min"},
      {"measurement": "duration of dopaminergic behavior: dur (total duration of action)", "setting": "rats; 5.9 mg/kg", "value": "135 min and 120 min"},
      {"measurement": "duration of dopaminergic behavior: less intense stereotypy", "setting": "rats; 5.9 mg/kg, 5.9 mg/kg", "value": "105 to 130 min and 80 to 90 min"},
      {"measurement": "dopamine release at maximal decrease", "setting": "[1]; [6]", "value": "80 % of control values"},
      {"measurement": "maximal decrease of dopamine release", "setting": "[1]; [6]", "value": 20, "unit": "%"},
      {"measurement": "time after which dopamine release decreases", "setting": "[1]; [6]", "value": "about 60 minutes"},
      {"measurement": "time until dopamine release is back to control values", "setting": "[1]; [6]", "value": "after about eight hours"}
    ]}
  ]
}
